One experiment relates to A2780 cells. As to the kind of experiment: A2780 cell proliferation screen. The class given is cell-based. The settings on record: Homo sapiens, A2780, 72 h, read-out: EC50 A2780.
Experiment [1] relates to human T cells. As to the kind of experiment: ConA-induced T cell expansion from human PBMCs. The class given is cell-based. To be noted: 168 h, read-out: EC50 T cells.
The subject of experiment [2] is human T cells. The experiment can be described thus: Cytokine rescue of human T cell proliferation from trametinib. It is filed as cell-based. To be noted: aAPCs, 200 nM trametinib, 7 days; IL-2 20 U/ml, IL-7 2 ng/ml, IL-15 10 ng/ml, IL-21 100 ng/ml, IL-27 50 ng/ml, ALT-803 35.7 ng/ml.
The subject of a further experiment is MEK. As to the kind of experiment: Brpkp110 cells MEK signaling, Western blot. The class given is cell-based, mouse. To be noted: 8 nM or 200 nM trametinib, 18 hr. (In western blotting, separated proteins are transferred to a membrane and probed.)
Another experiment relates to Brpkp110 tumors. To be noted: trametinib 1.0 mg/kg oral gavage days 3-13, single intervention.
Experiment [3] deals with human T cells. The experiment can be described thus: Human T cell proliferation with aAPCs. The class given is cell-based. To be noted: human PBMCs, 7 days.
In the next experiment the test system is ERK1/2 phosphorylation. As to the kind of experiment: TCR ligation of human CD8 T cells, Western blot p-ERK1/2. It is filed as cell-based. The settings on record: within 10 minutes post-activation, trametinib 8 nM.

Take `CN1CCN(CCOc2cc(OC3CCOCC3)c3c(Nc4c(Cl)ccc5c4OCO5)ncnc3c2)CC1` [AZD0530 (saracatinib), saracatinib]: in the experiment on A2780 cells, the 50% effective concentration (EC50) (usually the concentration that produces a half-maximal response) was above 25000 nM.

Take `Cc1cc([C@@H](C)Nc2ccccc2C(=O)O)c2nc(N3CCOCC3)cc(=O)n2c1` [AZD6482]: the EC50 in the experiment on A2780 cells was above 25000 nM.

As to `COc1cc(Nc2ncc3c(n2)-c2ccc(Cl)cc2C(c2c(F)cccc2OC)=NC3)ccc1C(=O)O` [MLN8237 (alisertib), alisertib], the EC50 in the experiment on A2780 cells is above 25000 nM.

As to `CN(C)CC[C@H](CSc1ccccc1)Nc1ccc(S(=O)(=O)NC(=O)c2ccc(N3CCN(Cc4ccccc4-c4ccc(Cl)cc4)CC3)cc2)cc1[N+](=O)[O-]` [ABT-737], the EC50 with human T cells [1] was found to be 61 nM.

`CN(C)C(=O)c1cc2cnc(Nc3ccc(N4CCNCC4)cn3)nc2n1C1CCCC1` [LEE011]: in the experiment on A2780 cells, the concentration for a half-maximal effect (EC50) was above 25000 nM.

Consider `COc1ccc(-c2ccc3c(N4CCOC[C@@H]4C)nc(N4CCOC[C@@H]4C)nc3n2)cc1CO` [AZD8055], for which the EC50 in the experiment on human T cells [1] came to 13.6 nM; in the experiment on A2780 cells, 78.3 nM.

As for `COc1ncc(-c2ccc3nccc(-c4ccnnc4)c3c2)cc1NS(=O)(=O)c1ccc(F)cc1F` [GSK2126458 (omipalisib), omipalisib], the EC50 in the experiment on human T cells [1] is 0.237 nM; in the experiment with A2780 cells, 155 nM.

As to IL-21: human IL-21 cytokine, in the experiment with human T cells [2], the “Rescue of human T cell proliferation in the presence of trametinib” value (from here on “Rescue of human T cell proliferation”) is recorded as “no significant rescuing effect”.

For `CCN(CCCOc1ccc2c(Nc3cc(CC(=O)Nc4cccc(F)c4)n[nH]3)ncnc2c1)CCOP(=O)(O)O` [AZD1152 (barasertib), barasertib], in the experiment on A2780 cells, the EC50 is above 25000 nM.

`C[C@]1(O)C[C@@H](c2nc(-c3ccc4ccc(-c5ccccc5)nc4c3)c3c(N)nccn32)C1` [OSI-906 (linsitinib), linsitinib]: the concentration for a half-maximal effect (EC50) in the experiment on human T cells [1] and in the experiment with A2780 cells was above 25000 nM in each case.

Take `Cn1c(=O)n(-c2ccc(C(C)(C)C#N)cc2)c2c3cc(-c4cnc5ccccc5c4)ccc3ncc21` [BEZ235 (dactolisib), dactolisib]: the EC50 in the experiment on human T cells [1] came to 2.4 nM; in the experiment on A2780 cells, 21 nM.

On to `CC(=O)Nc1cccc(-n2c(=O)n(C3CC3)c(=O)c3c(Nc4ccc(I)cc4F)n(C)c(=O)c(C)c32)c1` [GSK1120212 (trametinib), trametinib], for which, in the experiment on A2780 cells, the concentration giving a half-maximal response (EC50) is above 25000 nM. Further, in the experiment on MEK, the “Signaling through MEK in Brpkp110 cells” value is “can be inhibited”. The “Growth of Brpkp110 tumors” value in the experiment on Brpkp110 tumors was “significantly reduced the growth”. Moreover, the “Proliferation of human T cells in response to aAPC coated with agonistic CD3 and CD28 antibodies” value with human T cells [3] was “Comparable results”.

In the case of `CC(=O)c1c(C)c2cnc(Nc3ccc(N4CCNCC4)cn3)nc2n(C2CCCC2)c1=O` [PD0332991 (palbociclib), palbociclib], in the experiment on human T cells [1], the EC50 is 110 nM.

On to `Cc1[nH]c2ccccc2c1CCNCc1ccc(/C=C/C(=O)NO)cc1` [LBH589 (panobinostat), panobinostat], for which, in the experiment on human T cells [1], the EC50 was 25 nM.

Take `CCCS(=O)(=O)Nc1ccc(F)c(C(=O)c2c[nH]c3ncc(-c4ccc(Cl)cc4)cc23)c1F` [PLX4032 (vemurafenib), vemurafenib]: the concentration giving a half-maximal response (EC50) with A2780 cells is above 25000 nM.

Consider `Cn1ncc(Cl)c1-c1cc(C(=O)N[C@H](CN)Cc2ccc(F)c(F)c2)oc1Cl` [GSK2141795], for which the EC50 is 96 nM in the experiment on human T cells [1] and 2350 nM with A2780 cells.

As to `Cn1cnc2c(F)c(Nc3ccc(Br)cc3Cl)c(C(=O)NOCCO)cc21` [AZD6244 (selumetinib), selumetinib], the EC50 with A2780 cells was above 25000 nM.

“IL-15: Recombinant human IL-15 (Novoprotein)”: the “Rescue of TCR-induced ERK1/2 phosphorylation from MEK inhibition” value with ERK1/2 phosphorylation was “can rescue”. Moreover, the “Rescue of human T cell proliferation” value with human T cells [2] is on record as “able to individually rescue the proliferation”.

B1: IL-7: mouse IL-7 (Peprotech) (protein, UniProt P10168 26-154, looked up)
Interleukin-7: ECHIKDKEGKAYESVLMISIDELDKMTGTDSNCPNNEPNFFRKHVCDDTKEAAFLNRAARKLKQFLKMNISEEFNVHLLTVSQGTQTLVNCTSKEEKNVKEQKKNDACFLKRLLREIKTCWNKILKGSI
On to B1, for which the “Rescue of human T cell proliferation” value in the experiment with human T cells [2] is on record as “able to individually rescue the proliferation”.

B2: IL-27: human IL-27 (eBioscience) (protein, UniProt Q8NEV9 29-243; Q14213 21-229, looked up)
Interleukin-27 subunit alpha: FPRPPGRPQLSLQELRREFTVSLHLARKLLSEVRGQAHRFAESHLPGVNLYLLPLGEQLPDVSLTFQAWRRLSDPERLCFISTTLQPFHALLGGLGTQGRWTNMERMQLWAMRLDLRDLQRHLRFQVLAAGFNLPEEEEEEEEEEEEERKGLLPGALGSALQGPAQVSWPQLLSTYRLLHSLELVLSRAVRELLLLSKAGHSVWPLGFPTLSPQP
Interleukin-27 subunit beta: RKGPPAALTLPRVQCRASRYPIAVDCSWTLPPAPNSTSPVSFIATYRLGMAARGHSWPCLQQTPTSTSCTITDVQLFSMAPYVLNVTAVHPWGSSSSFVPFITEHIIKPDPPEGVRLSPLAERQLQVQWEPPGSWPFPEIFSLKYWIRYKRQGAARFHRVGPIEATSFILRAVRPRARYYVQVAAQDLTDYGELSDWSLPATATMSLGK
On to B2, for which the “Rescue of human T cell proliferation” value in the experiment with human T cells [2] is “no significant rescuing effect”.

These data come from publication PMC4873368 (Cancer research, 2016).
